Here are results for eleven compounds from patent US20080051413A1, “Nitrophenylpiperazine derivative of xanthine which relaxes tracheal airway and increases respiratory performance” (KAOHSIUNG MEDICAL UNIVERSITY, priority 2006, published 2008).

The subject of test [1] is guinea pig tracheal smooth muscle cells. As to the kind of experiment: Measurement of cGMP in TSMCs. The test is classed as cell-based. The following applies: for amounts of cGMP versus vehicle (FIG. 6): 100 _M, 20 min. How it is done: (§1) Cell Culture of Tracheal Smooth Muscle: Guinea pigs (350-450 g) were injected i.p. with a lethal dose of pentobarbital. The tracheas were excised and cut longitudinally through the cartilage. Using a dissecting microscope, TSM strips were dissected from the surrounding parentchyma. The epithelium was removed from the luminal surface, and bands of TSM were gently separated from the underlying connective tissue. Then TSM strips were chopped into small sections (1 mm^3) and incubated in Hanks' balanced salt solution (138 mM NaCl, 4 mM NaHCO3, 5 mM KCl, 0.3 mM KH2PO4, 0.3 mM Na2HPO4, and 1.0 mM glucose) with 0.05% elastase type IV and 0.2% collagenase type IV (Invitrogen, Carlsbad, Calif.) for 30 min at 37_ with gentle shaking. The solution of dissociated smooth muscle cells was centrifuged (6 min at 500 g), and the pellet was resuspended in 1:1 Dulbecco's modified Eagle's medium/Ham's F-12 medium supplemented with 10% fetal bovine serum, 0.244% NaHCO3, and 1% penicillin/streptomycin. Cells were cultured in 25-cm^2 flasks at 37_ in humidified air containing 5% CO2. Confluent cells were detached with 0.25% trypsin-0.02% EDTA at 37_and then subcultured to establish secondary cultures. Cultures were maintained for no more than four passages. They were identified as smooth muscle cells by the typical hill-and-valley appearance, and cellular homogeneity was further confirmed by the presence of smooth muscle specific _-myosin and _-actin immunoreactivity. Indirect immunofluorescence staining for a variety of antigens was carried out by first plating the cells on chamber slides, fixing the cells in 3.7% formaldehyde-phosphate-buffered saline for 10 min, and permeabilizing the cells with phosphate-buffered saline and 0.1% Triton X-100. Cells were then stained with either a mouse monoclonal antibody directed against the amino-terminal 10 amino acids of _-smooth muscle actin or _-myosin (Roche Diagnostics, Indianapolis, Ind.). All cells were stained with fluorescein-labeled goat anti-mouse IgG antibody (Roche Diagnostics).
(§2) Measurement of cAMP and cGMP: Intracellular concentrations of cAMP and cGMP in TSMCs were measured as in our previous reports (Wu B N, Lin R J, Lin C Y, Shen K P, Chiang L C, and Chen I J (2001) A xanthine-based KMUP-1 with cyclic GMP enhancing and K^+ channels opening activities in rat aortic smooth muscle. Br J Pharmacol 134:265-274; Lin R J, Wu B N, Lo Y C, Shen K P, Lin Y T, Huang C H, and Chen I J (2002) KMUP-1 relaxes rabbit corpus cavernosum smooth muscle in vitro and in vivo: involvement of cyclic GMP and K(+) channels, Br J Pharmacol 135:1159-1166). In brief, cells were finally grown in 24-well plates (10^5 cells/well). At confluence, monolayer cells were washed with phosphate-buffered saline and then incubated with KMUP-3 (0.01-100 _M) for 20 min at 37_ in medium. […] The reaction was terminated by replacement of medium with 1 ml of ice-cold 1 N hydrochloric acid. Cells suspensions were sonicated and then centrifuged at 2500 g for 15 min at 4_. Then, the supernatants were lyophilized and the cAMP and cGMP of each sample were determined using commercially available radioimmunoassay kits (GE Healthcare, Little Chalfont, Buckinghamshire, UK).

In test [2] the test system is carbachol (1 _M)-precontracted guinea pig trachea. As to the kind of experiment: Isolated tracheal preparation, measurement of tension. As to conditions: 100 _M, carbachol (1 _M)-precontracted, EP+. How it is done:
Isolated Tracheal preparation and Measurement of Tension: Guinea pigs (350-450 g) were anesthetized with pentobarbital (70 mg/kg) i.p. and killed by a sharp blow on the neck, followed by cervical dislocation. The trachea was excised, cleaned of adhering fat and connective tissue, cut transversely into four to five rings, and then opened by cutting longitudinally through the cartilage rings diametrically opposite the tracheal smooth muscle (Hwang T L, Wu C C, and Teng C M (1999) YC-1 potentiates nitric oxide-induced relaxation in guinea-pig trachea. Br J Pharmacol 128:577-584). Then trachea rings were suspended in a 10-ml organ bath containing Krebs' solution (118 mM NaCl, 25 mM NaHCO3, 4.7 mM KCl, 1.2 mM KH2PO4, 1.2 mM MgSO4, 11 mM glucose, and 2.5 mM CaCl2, pH 7.3-7.4) maintained at 37_and aerated with 95% O2 and 5% CO2. Each tracheal tissue sample was subjected to 2 g of initial basal tension. All experiments were carried out in the presence of indomethacin (3 _M) and propranolol (1 _M) to prevent the formation of prostanoids and to inhibit _-adrenergic responses, respectively. Isometric tension was recorded with a force displacement transducer (model FT03; Grass Instruments, Quincy, M A). Before the start of measurements, all preparations were allowed to equilibrate with frequent washing for 1 h. They were first contracted with carbachol (1 _M) to determine the contractility of preparations. This was also done at the end of each experiment. The preparations were then washed and allowed to equilibrate with Krebs' solution for 50 min before being contracted a second time with carbachol (1 _M). When stable constriction to carbachol was reached, concentration responses of KMUP-3 (10, 30, and 100 _M) were obtained. Data were expressed as percentages of the maximum contractile response to carbachol (1 _M).
In experiments to examine the role of epithelium in tracheal relaxation, the epithelial cells were removed mechanically by rubbing the internal surface of trachea with a fine silver wire, and the removal of the epithelial layer was confirmed by histological examination as previously described (Wu et al., 2004).
To examine the possible mechanism of tracheal relaxant effects of KMUP-3, the tracheal strips were pretreated with a K^+ channel blocker, tetraethylammonium (TEA; 10 mM); a KATP channel blocker, glibenclamide (1-M); voltage-dependent K^+ channel blocker, 4-aminopyridine (4-AP, 100 _M); Ca^2+-dependent K^+ channel blockers, apamin (1 _M) and charybdotoxin (ChTX; 0.1 _M); a sGC inhibitor, 1H-[1,2,4]oxadiazolo[4,3-a]quinoxalin-1-one (ODQ; 1 _M); an NOS inhibitor, N—nitro-L-arginine methyl ester (L-NAME; 100 _M); and an adenylate cyclase (AC) inhibitor, SQ 22536 (100 _M) for 30 min prior to the addition of KMUP-3 (10, 30, and 100 _M). In the other experiments, TSMs were precontracted with 60 mM KCl to examine the relaxation achieved by KMUP-3. The KCl solution was prepared by substituting NaCl with KCl (60 mM) in an equimolar amount.

Test [3] deals with guinea pig tracheal smooth muscle cells. Kind of test: Measurement of cAMP in TSMCs. The following applies: for cAMP accumulation versus vehicle (FIG. 6) / cAMP level: 100 _M, 20 min; for cAMP level: basal/vehicle 62.6±6.4. Format: cell-based. How it is done:
as §1, §2
A general note: Changes in cAMP serve as a functional read-out for many G protein-coupled receptors.

Test [4] deals with PDE4 purified from human U-937 pronocytic cells. As to the kind of experiment: Phosphodiesterase activity, PDE4. Format: biochemical. As to conditions: 10 _M compound, n = 3. How it is done: Phosphodiesterase Activity: PDE activity was determined by the method of Nicholson et al. (Nicholson C D, Challiss R A, and Shahid M (1991) Differential modulation of tissue function and therapeutic potential of selective inhibitors of cyclic nucleotide phosphodiesterase isonzymes. Trends Pharmaclo Sci 12:19-27). PDE3 and PDE5 purified from human platelets and PDE4 purified from human U-937 pronocytic cells were used. Test compound (10 _M) or vehicle was incubated with 0.2 _g of enzyme and 1 _M cAMP containing 0.01 _M [^3H]cAMP in Tris buffer, pH 7.5, for 20 min at 25_. The reaction was terminated by boiling for 2 min, and the resulting […] was converted to adenosine by the addition of 10 mg/ml snake venom nucleotidase, which is followed by a further incubation at 37_for 10 min. Unhydrolyzed cAMP was bound to AG1-X2 resin, and the remaining [^3H]adenosine in the aqueous phase was quantitated by scintillation counting.

In test [5] the test system is cultured guinea pig tracheal smooth muscle cells. Kind of test: Expression of PKA and PKG (Western blot). The following applies: 1 _M, 30 min. The test is classed as cell-based. How it is done:
as §1
Expression of PKA and PKG: The expression of PKA and PKG was determined by Western blot as previously described by Wu et al. and Murthy et al. (Wu B N, Lin R J, Lo Y C, Shen K P, Wang C C, Lin Y T, and Chen I J (2004) KMUP-1, a xanthine derivatives, induces relaxation of guinea-pig isolated trachea: the role of the epithelium, cyclic nucleotides and K^+ channels. Br J Pharmacol 142:1105-1114; Murthy K S, Zhou H, and Makhlouf G M (2002) PKA-dependent activation of PDE3A and PDE4 and inhibition of adenylyl cyclase V/VI in smooth muscle. Am J Physiol 282:C508-C517). Guinea pig TSMCs were incubated with KMUP-3 for 30 min. Each of the cell lysates, each containing 1 _g of cellular protein, was electrophoresed in 7.5% SDS-polyacrylamide gel electrophoresis and then transferred to polyvinylidene diflouride membrane (Millipore Corporation, Billerica, Mass.). The membrane was stained with Ponceau S to verify the integrity of the transferred proteins and to monitor the unbiased transfer of all protein samples. The membrane was then washed with 25 ml of TBS (100 mM NaCl, 0.1% and 10 mM Tris-HCl, pH 7.5) for 5 min at room temperature and incubated in 25 ml of blocking buffer (TBS plus 0.1% Tween 20 and 5% nonfat milk) overnight at 4_. In the measurement of protein, the membrane was incubated with appropriate PKARI or PKA1—1— primary antibody (diluted 1:250) in 2 ml of blocking buffer for 1 h at room temperature, washed three times for 5 min each with 15 ml of Tris-buffered saline/Tween 20 (TBS plus 0.1% Tween 20), incubated with horseradish peroxidase-conjugated secondary antibody (1:10,000) in 15 ml of blocking buffer with gentle agitation for 1 h at room temperature, and finally washed three times for 5 min each time with 15 ml of Tris-buffered saline/Tween 20. The membrane was then subjected to enhanced chemiluminescence (GE Healthcare) for the detection of the specific antigen.
Background: Immunoblotting shows a protein as a band on a membrane.

Consider `COc1ccc(C2CNC(=O)C2)cc1OC1CCCC1` (stereo not drawn) [rolipram, reference compound], for which, in test [1], the “amounts of cGMP versus vehicle (FIG. 6)” value is reported as “not observed”. Moreover, the “relaxation in epithelium-intact trachea (FIG. 3(B))” value (from here on “relaxation”) in test [2] is “cause relaxations”. The “cAMP accumulation versus vehicle (FIG. 6)” value in test [3] is reported as “significant elevations”.
As to `Cn1c(=O)c2[nH]cnc2n(C)c1=O` [theophylline, reference compound], the “PDE4 Inhibition” value in test [4] was 7.9±1.2%. Moreover, in test [1], the “amounts of cGMP versus vehicle (FIG. 6)” value is listed as “significantly enhances”. The “relaxation” value in test [2] is listed as “cause relaxations”. The “cAMP accumulation versus vehicle (FIG. 6)” value in test [3] was “significant elevations”.
For the compound `O=c1onc2cnc3ccccc3n12` [ODQ, 1H-[1,2,4]oxadiazolo[4,3-a]quinoxalin-1-one, reference compound], the “Cyclic GMP level” value in test [1] (10 _M (ODQ alone), vehicle 1.18 ± 0.06) is recorded as 1.12 ± 0.03 pmol/mg protein.
`Nc1ncnc2c1ncn2C1CCCO1` (stereo not drawn) [SQ 22536, reference compound]: the cAMP level in test [3] is reported as 74.32 ± 7.56 pmol/mg protein.
Regarding `Nc1nc2c(nc(Br)n2[C@@H]2O[C@@H]3COP(=O)(O)O[C@H]3[C@H]2O)c(=O)[nH]1` [8-Br-cGMP, reference compound], in test [5], the “expression of PKA1—1— (FIG. 7(B))” value is “increased the expression of PKA1—1—”.
Regarding `Nc1ncnc2c1nc(Br)n2[C@@H]1O[C@@H]2COP(=O)(O)O[C@H]2[C@H]1O` [8-Br-cAMP, reference compound], the “expression of immunoreactive PKARI protein (FIG. 7(A))” value in test [5] is given as “increased the expression of PKARI”.
In the case of `CC(C)Cn1c(=O)n(C)c(=O)c2[nH]cnc21` [IBMX, 3-isobutyl-1-methylxanthine, reference compound], the “relaxation” value in test [2] is listed as “cause relaxations”.
In the case of `CCCOc1ccccc1-c1nc2nn[nH]c2c(=O)[nH]1` [zaprinast, reference compound], the “amounts of cGMP versus vehicle (FIG. 6)” value in test [1] is “significantly enhances”. Moreover, in test [2], the “relaxation” value is listed as “cause relaxations”. Besides, the “cAMP accumulation versus vehicle (FIG. 6)” value in test [3] was “not so”.
For `C=C[C@@]1(C)CC(=O)[C@]2(O)[C@@]3(C)[C@@H](O)CCC(C)(C)[C@@H]3[C@H](O)[C@H](OC(C)=O)[C@@]2(C)O1` [Forskolin, forskolin, reference compound], the “cAMP level in presence of SQ 22536” value in test [3] (100 _M compound plus SQ 22536 (100 _M) pretreatment) was found to be 94.33 ± 3.42 pmol/mg protein. Besides, the cAMP level in test [3] came out at 119.15 ± 5.11 pmol/mg protein.
With `CC1(C)Oc2ccc(C#N)cc2[C@@H](N2CCCC2=O)[C@@H]1O` [levcromakalim, reference compound], the “relaxation” value in test [2] is given as “displayed relaxation effects”.
In the case of `Cc1[nH]c(=O)c(C#N)cc1-c1ccncc1` [milrinone, reference compound], the “amounts of cGMP versus vehicle (FIG. 6)” value in test [1] is reported as “not observed”. In test [2], the “relaxation” value is listed as “cause relaxations”. The “cAMP accumulation versus vehicle (FIG. 6)” value in test [3] is reported as “significant elevations”.
